Assay results from ChEMBL document CHEMBL1127748, “Binding of fluorescent and spin-labeled C-terminal hirudin analogs to thrombin” (J Med Chem, 1994).
pIC50, pKi: −log10 of the molar value.

Assays:
Prothrombin [1] = molecular target: T1, Prothrombin (Homo sapiens, UniProt P00734); test: Binding affinity values determined by clotting inhibition assays
Prothrombin [2] = molecular target: T1, Prothrombin; test: Inhibitory concentration against Thrombin; 0.029-0.15 uM

| pKi (Prothrombin [1]) | pIC50 (Prothrombin [2]) | Compound |
| --- | --- | --- |
| 7.00 | – | CC[C@H](C)[C@H](NC(=O)[C@H]1CCCN1C(=O)[C@H](CCC(=O)O)NC(=O)[C@@H](Cc1ccc(O)cc1)NC(=O)CC(N)C(=O)CCCCCCCNC(=O)c1ccccc1N)C(=O)N1CCC[C@@H]1C(=O)N[C@@H](CCC(=O)O)C(=O)N[C@H](CCC(=O)O)C(=O)N[C@@H](C)C(=O)N[C@H](CC1CCCCC1)C(=O)N[C@@H](CCC(=O)O)C(=O)O (some centres undefined) |
| 7.00 | – | CC[C@H](C)[C@H](NC(=O)[C@H]1CCCN1C(=O)[C@H](CCC(=O)O)NC(=O)[C@@H](Cc1ccc(O)cc1)NC(=O)CC(N)C(=O)CCCCCCCNC(=O)C1=CC(C)(C)N(O)C1(C)C)C(=O)N1CCC[C@@H]1C(=O)N[C@@H](CCC(=O)O)C(=O)N[C@H](CCC(=O)O)C(=O)N[C@@H](C)C(=O)N[C@H](CC1CCCCC1)C(=O)N[C@@H](CCC(=O)O)C(=O)O (some centres undefined) |
| – | 7.54 | CC[C@H](C)[C@H](NC(=O)[C@H]1CCCN1C(=O)[C@H](CCC(=O)O)NC(=O)[C@@H](Cc1ccc(O)cc1)NC(=O)CCC(=O)O)C(=O)N1CCC[C@@H]1C(=O)N[C@@H](CCC(=O)O)C(=O)N[C@H](CCC(=O)O)C(=O)N[C@@H](C)C(=O)N[C@H](CC1CCCCC1)C(=O)N[C@@H](CCC(=O)O)C(=O)O |
| 7.00 | – | CC[C@H](C)[C@H](NC(=O)[C@H]1CCCN1C(=O)[C@H](CCC(=O)O)NC(=O)[C@@H](Cc1ccc(O)cc1)NC(=O)CC(N)C(=O)CCCCCCCNc1cccc2c(N(C)C)cccc12)C(=O)N1CCC[C@@H]1C(=O)N[C@@H](CCC(=O)O)C(=O)N[C@H](CCC(=O)O)C(=O)N[C@@H](C)C(=O)N[C@H](CC1CCCCC1)C(=O)N[C@@H](CCC(=O)O)C(=O)O (some centres undefined) |
